The text below walks through data of publication PMC9127186, “Molecular Basis Underlying Hepatobiliary and Renal Excretion of Phenolic Acids of Salvia miltiorrhiza Roots (Danshen)” (Frontiers in Pharmacology, 2022).

The target of the data set is T1, human MRP4 (Homo sapiens, UniProt O15439).
T1 sequence (O15439 1-1325): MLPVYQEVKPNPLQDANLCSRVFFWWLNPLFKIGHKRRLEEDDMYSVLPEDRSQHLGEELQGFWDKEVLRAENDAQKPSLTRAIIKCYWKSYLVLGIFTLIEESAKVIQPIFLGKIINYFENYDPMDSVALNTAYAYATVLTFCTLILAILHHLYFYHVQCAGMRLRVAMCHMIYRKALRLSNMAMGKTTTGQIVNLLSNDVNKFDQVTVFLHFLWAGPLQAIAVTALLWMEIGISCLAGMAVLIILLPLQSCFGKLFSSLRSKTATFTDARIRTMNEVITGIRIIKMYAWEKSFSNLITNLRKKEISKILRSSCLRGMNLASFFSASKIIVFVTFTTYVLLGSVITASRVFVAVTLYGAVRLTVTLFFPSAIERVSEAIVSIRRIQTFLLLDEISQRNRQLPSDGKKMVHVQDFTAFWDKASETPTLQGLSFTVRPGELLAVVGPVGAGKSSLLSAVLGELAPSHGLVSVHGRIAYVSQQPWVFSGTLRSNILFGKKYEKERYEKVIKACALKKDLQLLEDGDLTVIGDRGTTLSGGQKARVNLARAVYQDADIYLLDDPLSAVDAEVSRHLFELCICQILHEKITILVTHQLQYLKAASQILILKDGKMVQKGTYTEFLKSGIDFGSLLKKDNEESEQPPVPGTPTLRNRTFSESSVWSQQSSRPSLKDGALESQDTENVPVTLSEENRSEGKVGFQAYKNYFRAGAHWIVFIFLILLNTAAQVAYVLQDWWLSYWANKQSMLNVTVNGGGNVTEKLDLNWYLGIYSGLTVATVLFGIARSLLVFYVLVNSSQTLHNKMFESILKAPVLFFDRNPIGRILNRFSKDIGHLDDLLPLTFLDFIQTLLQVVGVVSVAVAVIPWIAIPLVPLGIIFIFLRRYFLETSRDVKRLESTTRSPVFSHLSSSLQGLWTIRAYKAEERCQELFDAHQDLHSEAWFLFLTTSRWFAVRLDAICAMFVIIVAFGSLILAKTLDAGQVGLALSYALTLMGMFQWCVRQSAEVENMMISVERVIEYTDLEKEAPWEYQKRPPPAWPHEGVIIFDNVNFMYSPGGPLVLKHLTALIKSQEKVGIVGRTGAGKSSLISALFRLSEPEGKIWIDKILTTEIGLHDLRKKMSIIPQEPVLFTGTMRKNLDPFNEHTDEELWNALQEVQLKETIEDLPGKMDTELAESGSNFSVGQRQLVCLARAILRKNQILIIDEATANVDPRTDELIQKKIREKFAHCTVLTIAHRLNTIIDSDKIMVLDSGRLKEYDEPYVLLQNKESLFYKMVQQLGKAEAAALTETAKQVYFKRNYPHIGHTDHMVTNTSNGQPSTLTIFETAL
The data set can be described thus: Vesicular transport assay, inside-out membrane vesicles expressing human MRP4. To be noted: for TransportATP/TransportAMP ratio (net transport ratio): 10 min. The method, then:
Inside-out membrane vesicles (5 mg protein/mL), prepared from insect cells expressing human multidrug resistance-associated protein (MRP) 2, MRP3, MRP4, breast cancer resistance protein (BCRP), bile salt export pump (BSEP), and multidrug resistance protein (MDR) one and rat Mrp2, Mrp4, Bcrp, and Bsep, and vesicles (5 mg protein/mL; prepared from the insect cells expressing no ABC transporter; serving as negative control) were obtained from Genomembrane (Kanazawa, Japan).
The test Danshen compounds at 100 µM final concentration were separately incubated with the membrane vesicles for 10 min. Buffer C (50 mM MOPS-tris, 70 mM KCl, 7.5 mM MgCl2, pH 7.0) was used for preincubation and incubation, while buffer D (40 mM MOPS-tris, 70 mM KCl, pH 7.0) was used for vesicle washing. The transport rate (pmol/mg protein/min) of the test Danshen compound was calculated using Equation (2): Transport=(CV×VV)/T/WV (2) where C V, V V, T, and W V represent concentration of the compound in vesicular lysates supernatant (μM), volume of the lysates (μL), incubation time (10 min), and amount of vesicle protein amount per well (0.05 mg), respectively. Differential transport of the test Danshen compound between ATP-containing vesicles and AMP-containing vesicles was defined as net transport ratio (TransportATP/TransportAMP ratio). […] All the incubation samples were analyzed by liquid chromatography/mass spectrometry.

Setting [1] is: Danshen phenolic acid at 100 μM final concentration, human MRP4 vesicles.

For `O=C(/C=C/c1ccc(O)c2c1[C@H](C(=O)O)[C@@H](c1ccc(O)c(O)c1)O2)O[C@H](Cc1ccc(O)c(O)c1)C(=O)O` [Lithospermic acid, lithospermic acid], the “TransportATP/TransportAMP ratio (net transport ratio)” value (from here on “TransportATP/TransportAMP ratio”) under setting [1] stood at 1.36 ± 0.14.
The same measure, in the same setting: to `O=C(O)c1ccc(O)c(O)c1` [Protocatechuic acid, protocatechuic acid] belongs 1.25 ± 0.14.
As to `O=C(/C=C/c1ccc(O)c(O)c1)O[C@H](Cc1ccc(O)c(O)c1)C(=O)O` [Rosmarinic acid, rosmarinic acid], the “TransportATP/TransportAMP ratio” value (human, 100 μM, pH 7) worked out at 1.99 ± 0.08.
On the same count and under the same terms, to `O=C(/C=C/c1ccc(O)c(O)c1/C=C/c1ccc(O)c(O)c1)O[C@H](Cc1ccc(O)c(O)c1)C(=O)O` [Salvianolic acid A, salvianolic acid A] belongs 1.56 ± 0.05.
For the molecule `O=C(O)Cc1c(/C=C/C(=O)O[C@H](Cc2ccc(O)c(O)c2)C(=O)O)ccc(O)c1O` [Salvianolic acid D, salvianolic acid D], the “substrate of human MRP4” value is listed as “substrate”. Further, under setting [1], the “TransportATP/TransportAMP ratio” value turned out to be 5.27 ± 0.51.
On to salvianolic acid B, for which, under setting [1], the “TransportATP/TransportAMP ratio” value is 1.99 ± 0.06.
